Experiment [1] deals with T1, E3 ubiquitin-protein ligase Mdm2 (Homo sapiens, UniProt Q00987). Nature of the experiment: Binding affinity to N-terminal 6xHis-tagged MDM2 (unknown origin) (1 to 126 residues) assessed as inhibition of MDM2/p53 protein-protein interaction by fluorescence anisotrophy assay.
Target sequence in this assay (Q00987 whole entry, the tested form may be a part): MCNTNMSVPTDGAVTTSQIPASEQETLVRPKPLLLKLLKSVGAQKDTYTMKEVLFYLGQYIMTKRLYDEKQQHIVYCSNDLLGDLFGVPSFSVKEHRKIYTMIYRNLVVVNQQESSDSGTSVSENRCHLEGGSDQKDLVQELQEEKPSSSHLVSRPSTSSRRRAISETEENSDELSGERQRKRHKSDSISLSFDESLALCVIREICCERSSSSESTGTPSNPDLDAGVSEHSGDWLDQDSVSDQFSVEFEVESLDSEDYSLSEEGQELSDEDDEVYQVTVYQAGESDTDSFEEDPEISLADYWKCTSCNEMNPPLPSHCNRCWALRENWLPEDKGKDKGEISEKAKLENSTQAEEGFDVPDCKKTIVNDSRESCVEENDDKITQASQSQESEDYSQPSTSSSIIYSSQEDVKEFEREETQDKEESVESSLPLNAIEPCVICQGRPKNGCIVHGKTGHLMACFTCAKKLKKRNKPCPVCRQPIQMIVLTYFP
For experiment [2], the target named is T1, E3 ubiquitin-protein ligase Mdm2. Nature of the experiment: Competitive binding affinity to 6xHis-taged MDM2 (unknown origin) expressed in Escherichia coli Gold (DE3) assessed as reduction in STD signal intensity at 0.1 mM in presence of 0.1 mM nutlin-3a by STD-NMR analysis.
Target sequence in this assay (Q00987 whole entry, looked up, the tested form may be a part): as the sequence (Q00987 whole entry, the tested form may be a part) above
Experiment [3] has the same target. Put plainly: Binding affinity to 6xHis-taged MDM2 (unknown origin) expressed in Escherichia coli Gold (DE3) assessed as observation of positive signal at 0.1 mM by STD-NMR analysis.
Target sequence in this assay (Q00987 whole entry, looked up, the tested form may be a part): as the sequence (Q00987 whole entry, the tested form may be a part) above
For experiment [4] the target is unchanged. Put plainly: Binding affinity to 6xHis-taged MDM2 (unknown origin) expressed in Escherichia coli Gold (DE3) assessed as change in signal intensity at 0.1 mM by WATERLOGSY-NMR analysis.
Target sequence in this assay (Q00987 whole entry, looked up, the tested form may be a part): as the sequence (Q00987 whole entry, the tested form may be a part) above
The target is the same in experiment [5]. Put plainly: Binding affinity to 6xHis-taged MDM2 (unknown origin) expressed in Escherichia coli Gold (DE3) assessed as increase in signal-to-noise ratio at 0.1 mM by STD-NMR analysis.
Target sequence in this assay (Q00987 whole entry, looked up, the tested form may be a part): as the sequence (Q00987 whole entry, the tested form may be a part) above
The target is the same in experiment [6]. Put plainly: Competitive binding affinity to 6xHis-taged MDM2 (unknown origin) expressed in Escherichia coli Gold (DE3) assessed as reduction in signal intensity at 0.1 mM in presence of 0.1 mM nutlin-3a by WATERLOGSY-NMR analysis.
Target sequence in this assay (Q00987 whole entry, looked up, the tested form may be a part): as the sequence (Q00987 whole entry, the tested form may be a part) above
Experiment [7] has as its target Ras-related protein Rab-6A (Homo sapiens, UniProt P20340). Put plainly: Binding affinity to RAB6A (unknown origin) assessed as inhibition of RAB6A/[…] protein-protein interaction.
Experiment [8] is described as follows: Binding affinity to IPTG-induced […] human TEV cleavage site-fused- GST-tagged beta-catenin (134 to 665 residues) assessed as inhibition of beta-catenin/axin protein-protein interaction after 45 mins by fluorescence polarization assay. In general terms: Fluorescence polarisation rises when a labelled molecule tumbles more slowly, as on binding a larger partner.

Experiment [9] addresses T1, E3 ubiquitin-protein ligase Mdm2. Nature of the experiment: Competitive binding affinity to 6xHis-taged MDM2 (unknown origin) expressed in Escherichia coli Gold (DE3) assessed as observation of residual signal at 0.1 mM in presence of 0.1 mM nutlin-3a by STD-NMR analysis.
Target sequence in this assay (Q00987 whole entry, looked up, the tested form may be a part): as the sequence (Q00987 whole entry, the tested form may be a part) above
For experiment [10] the target is unchanged. Nature of the experiment: Binding affinity to 6xHis-taged MDM2 (unknown origin) expressed in Escherichia coli Gold (DE3) assessed as inversion of signal intensity from negative to positive at 0.1 mM by WATERLOGSY-NMR analysis.
Experiment [11] has as its target T2, Estrogen receptor (Homo sapiens, UniProt P03372).
T2 sequence (P03372 whole entry): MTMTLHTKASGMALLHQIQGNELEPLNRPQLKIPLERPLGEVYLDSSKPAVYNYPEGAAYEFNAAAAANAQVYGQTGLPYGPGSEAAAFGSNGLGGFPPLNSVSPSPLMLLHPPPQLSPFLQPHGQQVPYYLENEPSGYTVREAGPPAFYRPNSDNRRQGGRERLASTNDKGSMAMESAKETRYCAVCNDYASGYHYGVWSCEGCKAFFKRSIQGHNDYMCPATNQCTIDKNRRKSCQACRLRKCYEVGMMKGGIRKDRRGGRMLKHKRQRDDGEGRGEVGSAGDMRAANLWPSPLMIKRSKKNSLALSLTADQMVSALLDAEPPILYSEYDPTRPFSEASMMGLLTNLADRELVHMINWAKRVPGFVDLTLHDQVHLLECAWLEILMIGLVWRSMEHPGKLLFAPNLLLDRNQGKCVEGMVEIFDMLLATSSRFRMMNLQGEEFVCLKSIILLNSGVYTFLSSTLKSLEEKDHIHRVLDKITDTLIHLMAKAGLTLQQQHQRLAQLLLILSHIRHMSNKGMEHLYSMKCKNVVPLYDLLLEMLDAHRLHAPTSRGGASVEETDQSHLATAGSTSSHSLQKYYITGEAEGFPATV
Nature of the experiment: Binding affinity to IPTG-induced human ER alpha LBD (301 to 553 residues) expressed in Escherichia coli BL21 (DE3) assessed as inhibition of ER alpha/NR2A protein-protein interaction at 25 degree by surface plasmon resonance assay. For orientation: SPR reads the build-up and loss of mass on a sensor chip optically.

A short description of experiment [12]: Binding affinity to Plasmodium falciparum N-terminal His6-tagged MTIP expressed in Escherichia coli BL21 (DE3) assessed as inhibition of MTIP/MyoA protein-protein interaction at 303 K by isothermal titration calorimetry. Background: In ITC the heat of successive injections is recorded.
Experiment [13] has as its target T3, BTB/POZ domain-containing protein KCTD11 (Homo sapiens, UniProt Q693B1).
T3 sequence (Q693B1 whole entry): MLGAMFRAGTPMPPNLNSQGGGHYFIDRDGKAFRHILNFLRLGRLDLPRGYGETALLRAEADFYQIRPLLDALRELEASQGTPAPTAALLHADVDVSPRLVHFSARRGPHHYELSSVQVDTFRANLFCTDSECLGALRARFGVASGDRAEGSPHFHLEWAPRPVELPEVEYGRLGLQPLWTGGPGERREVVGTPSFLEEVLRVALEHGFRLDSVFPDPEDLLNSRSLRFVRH
Nature of the experiment: Binding affinity to recombinant N-terminal poly His-Trx tagged KCTD11 (15 to 115 residues) (unknown origin) expressed in Escherichia coli assessed as inhibition of KCTD11/cullin3a protein-protein interaction by fluorescence polarization assay.

Experiment [14] addresses T4, Menin (Homo sapiens, UniProt O00255).
T4 sequence (O00255 whole entry): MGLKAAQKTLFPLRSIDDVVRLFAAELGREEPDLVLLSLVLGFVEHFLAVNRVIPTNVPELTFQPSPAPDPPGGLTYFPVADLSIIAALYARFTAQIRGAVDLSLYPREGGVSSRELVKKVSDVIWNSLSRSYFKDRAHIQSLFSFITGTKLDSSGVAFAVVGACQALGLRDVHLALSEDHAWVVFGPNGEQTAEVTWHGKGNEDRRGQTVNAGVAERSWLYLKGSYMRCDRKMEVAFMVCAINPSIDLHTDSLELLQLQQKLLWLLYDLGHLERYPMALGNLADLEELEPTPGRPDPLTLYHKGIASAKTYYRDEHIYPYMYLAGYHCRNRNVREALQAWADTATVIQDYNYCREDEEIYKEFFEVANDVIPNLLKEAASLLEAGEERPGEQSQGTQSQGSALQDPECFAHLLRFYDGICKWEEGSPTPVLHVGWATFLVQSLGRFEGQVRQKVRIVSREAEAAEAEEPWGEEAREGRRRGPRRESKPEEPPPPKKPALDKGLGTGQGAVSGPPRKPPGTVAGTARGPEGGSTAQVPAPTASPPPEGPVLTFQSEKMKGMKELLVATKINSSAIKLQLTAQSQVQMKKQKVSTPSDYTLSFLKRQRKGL
Nature of the experiment: Binding affinity to human Menin expressed in Escherichia coli BL21 (DE3) assessed as inhibition of Menin/MLL1 protein-protein at 20 degree C by isothermal titration calorimetry.

The source made the active and inactive calls. No cut-off for these calls is given here. Peptide text beside a SMILES is read from it.

We go through eight molecules from ChEMBL document CHEMBL4613322, “HOPPI-NMR: Hot-Peptide-Based Screening Assay for Inhibitors of Protein-Protein Interactions by NMR” (ACS Med Chem Lett, 2020).

Sequence of Ras-related protein Rab-6A (P20340 whole entry, the tested form may be a part): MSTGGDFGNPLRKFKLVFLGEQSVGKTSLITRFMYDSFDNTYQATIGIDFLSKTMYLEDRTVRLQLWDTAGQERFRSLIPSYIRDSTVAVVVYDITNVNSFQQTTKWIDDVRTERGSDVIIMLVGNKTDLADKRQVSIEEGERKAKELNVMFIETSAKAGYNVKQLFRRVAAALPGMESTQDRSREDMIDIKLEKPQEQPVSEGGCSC

The Kd is a measure of binding affinity in units of concentration. For the molecule `CC(C)C[C@H](NC(=O)[C@H](CC(C)C)NC(=O)[C@H](CCCCN)NC(=O)[C@H](Cc1c[nH]c2ccccc12)NC(=O)[C@H](CC(C)C)NC(=O)[C@H](CC(=O)O)NC(=O)[C@H](CO)NC(=O)[C@@H](N)Cc1ccccc1)C(=O)O`, the Kd in [1] worked out at 800 nM. Further, the result in experiment [2], in experiment [3], in experiment [4], in experiment [5] and in experiment [6] was Active.

Consider `CC(C)C[C@H](NC(=O)[C@H](CC(C)C)NC(=O)[C@H](Cc1cnc[nH]1)NC(=O)[C@H](Cc1ccc(O)cc1)NC(=O)[C@H](CC(C)C)NC(=O)[C@H](Cc1ccccc1)NC(=O)[C@H](CCC(N)=O)NC(=O)[C@H](CCC(=O)O)NC(=O)[C@H](CCCCN)NC(=O)[C@H](CCC(=O)O)NC(=O)[C@H](CC(=O)O)NC(=O)[C@@H](N)CC(=O)O)C(=O)N[C@@H](CO)C(=O)N[C@@H](Cc1ccccc1)C(=O)N[C@@H](CC(N)=O)C(=O)N[C@@H](C)C(=O)N[C@H](C(=O)O)C(C)C` (H-DDEKEQFLYHLLSFNAV-OH), for which the dissociation constant Kd in [7] worked out at 20000 nM.

As for `CC[C@H](C)[C@H](NC(=O)[C@H](CO)NC(=O)[C@H](CCC(=O)O)NC(=O)[C@@H]1CCCN1C(=O)[C@H](CC(N)=O)NC(=O)[C@@H](N)CCC(=O)O)C(=O)N[C@@H](CC(C)C)C(=O)N[C@@H](CC(=O)O)C(=O)N[C@@H](CCC(=O)O)C(=O)N[C@@H](Cc1cnc[nH]1)C(=O)N[C@H](C(=O)N[C@@H](CCC(N)=O)C(=O)N[C@@H](CCCNC(=N)N)C(=O)N[C@H](C(=O)N[C@@H](CCSC)C(=O)O)C(C)C)C(C)C` (H-ENPESILDEHVQRVM-OH), the Kd in experiment [8] was 5000 nM.

Regarding `CC(C)C[C@H](NC(=O)[C@H](CCCCN)NC(=O)[C@H](Cc1c[nH]c2ccccc12)NC(=O)[C@H](CC(C)C)NC(=O)[C@H](CC(=O)O)NC(=O)[C@H](CO)NC(=O)[C@@H](N)Cc1ccccc1)C(=O)O` (H-FSDLWKL-OH), the Kd in experiment [1] came to 150000 nM. Besides, the result in experiment [9], in experiment [2], in experiment [3], in experiment [10], in [5] and in [6] was Active.

As for `CC[C@H](C)[C@H](NC(=O)[C@H](CCCCN)NC(=O)[C@@H](N)Cc1cnc[nH]1)C(=O)N[C@@H](CC(C)C)C(=O)N[C@@H](Cc1cnc[nH]1)C(=O)N[C@@H](CCCNC(=N)N)C(=O)N[C@@H](CC(C)C)C(=O)N[C@@H](CC(C)C)C(=O)N[C@@H](CCC(N)=O)C(=O)N[C@@H](CC(=O)O)C(=O)N[C@@H](CO)C(=O)O` (H-HKILHRLLQDS-OH), the Kd in experiment [11] is 2500 nM.

For `CC[C@H](C)[C@H](NC(=O)[C@H](Cc1cnc[nH]1)NC(=O)[C@H](C)NC(=O)[C@H](CCC(N)=O)NC(=O)[C@@H](NC(=O)[C@H](CCCNC(=N)N)NC(=O)[C@H](CC(C)C)NC(=O)[C@H](CC(C)C)NC(=O)[C@H](CO)NC(=O)[C@@H]1CCCN1C(=O)[C@@H](NC(=O)[C@@H](N)CC(N)=O)[C@@H](C)CC)C(C)C)C(=O)N[C@@H](CCCNC(=N)N)C(=O)N[C@@H](CCCCN)C(=O)N[C@@H](CCCCN)C(=O)N[C@@H](CCSC)C(=O)N[C@H](C(=O)N[C@@H](C)C(=O)N[C@@H](CCC(N)=O)C(=O)O)C(C)C` (H-NIPSLLRVQAHIRKKMVAQ-OH), the Kd in [12] is 85 nM.

As for `CSCC[C@H](NC(=O)[C@@H](NC(=O)[C@H](Cc1ccc(O)cc1)NC(=O)[C@H](C)NC(=O)[C@H](CC(N)=O)NC(=O)[C@H](CCCNC(=N)N)NC(=O)[C@H](Cc1ccc(O)cc1)NC(=O)[C@H](CC(C)C)NC(=O)[C@H](CCC(=O)O)NC(=O)[C@H](CCC(=O)O)NC(=O)[C@H](Cc1ccccc1)NC(=O)[C@H](CO)NC(=O)[C@H](CC(C)C)NC(=O)CNC(=O)[C@H](CO)NC(=O)[C@@H](N)CC(N)=O)[C@@H](C)O)C(=O)N[C@H](C(=O)N[C@@H](CC(C)C)C(=O)N[C@@H](Cc1cnc[nH]1)C(=O)N[C@@H](CCCCN)C(=O)O)C(C)C` (H-NSGLSFEELYRNAYTMVLHK-OH), in [13], the Kd was 497 nM.

Turning to `C[C@H](NC(=O)[C@@H]1CCCN1C(=O)[C@H](Cc1ccccc1)NC(=O)[C@H](CCCNC(=N)N)NC(=O)[C@H](Cc1c[nH]c2ccccc12)NC(=O)[C@@H](N)CCCNC(=N)N)C(=O)N[C@@H](CCCNC(=N)N)C(=O)N1CCC[C@H]1C(=O)NCC(=O)N[C@H](C(=O)N[C@H](C(=O)NCC(=O)NCC(=O)NCC(=O)NCC(=O)NCC(=O)NCC(=O)NCC(=O)N[C@@H](CCCNC(=N)N)C(=O)N[C@@H](CCCNC(=N)N)C(=O)O)[C@@H](C)O)[C@@H](C)O` (H-RWRFPARPGTTGGGGGGGRR-OH), in experiment [14], the Kd turned out to be 82 nM.
